For 22 molecules, Toxicity results are on record in ChEMBL document CHEMBL2363022, “Malaria Box Schistosomiasis Screening Data” (2013).

What all share (format): functional
Common to all, as to design: scale not given here

The subject of assay [1] is Schistosoma mansoni.
For assay [2], the system named is Schistosoma mansoni. This is another data set of the same source.
Assay [3] deals with Schistosoma mansoni. The source holds these as a separate data set.

Regarding `CCOc1ccc(Nc2c3ccccc3nc3ccccc23)cc1.Cl`, the values for the Toxicity with Schistosoma mansoni [1], in the assay with Schistosoma mansoni [2] and with Schistosoma mansoni [3] were 4, 2 and 3, respectively.
For `Cc1cc(Nc2ccc(OCc3ccccc3)cc2)nc2cc(O)ccc12` the same measures were 4, 2 and 3.
For `CCOc1cc(Br)c(C(C)NC(=O)c2cccc(OC)c2)cc1OCC` (stereo unspecified), the Toxicity in the assay with Schistosoma mansoni [1], with Schistosoma mansoni [2] and with Schistosoma mansoni [3] was 0 in each case.
For the molecule `COc1cc2c3cc1Oc1c(OC)c(OC)cc4c1C(Cc1ccc(O)c(c1)Oc1ccc(cc1)CC3N(C)CC2)N(C)CC4.Cl` (stereo unspecified), the Toxicity with Schistosoma mansoni [1] came out at 4; in the assay with Schistosoma mansoni [2] it was 2; in the assay on Schistosoma mansoni [3], 3.
For `CCOc1ccc(CCNC(=O)c2cccs2)cc1OCC` the same measures were 0, 0 and 0.
For `CCN1CCCC1CNc1[nH]cnc2c3cc(Cl)ccc3nc1-2` (stereo unspecified) the same measures were 0, 0 and 0.
For `CC1CN(C(=O)c2sc3ccccc3c2Cl)CC(C)O1` (stereo unspecified) the same measures were 0, 0 and 0.
On to `Cl.Oc1ccccc1CNCC12CC3CC(CC(C3)C1)C2`, for which the Toxicity in the assay with Schistosoma mansoni [1], with Schistosoma mansoni [2] and in the assay on Schistosoma mansoni [3] was 0 each time.
In the case of `CCOc1cc2c(cc1OCC)C(c1cc(Cl)ccc1O)NCC2` (stereo unspecified), the Toxicity is 0 in the assay with Schistosoma mansoni [1], 0 in the assay on Schistosoma mansoni [2] and 1 with Schistosoma mansoni [3].
As for `CN(C)CCCNc1c2ccccc2nc2ccccc12`, the Toxicity in the assay on Schistosoma mansoni [1] was 4; in the assay with Schistosoma mansoni [2] it was 2; with Schistosoma mansoni [3] it was 2.
As to `OC1CCCCC1C1(NC(=S)Nc2ccccc2)CCCCC1` (stereo unspecified), the Toxicity with Schistosoma mansoni [1], in the assay with Schistosoma mansoni [2] and in the assay with Schistosoma mansoni [3] was 0 throughout.
Regarding `Cc1ccc(Nc2nc(N)c3ccccc3n2)cc1Cl`, the Toxicity in the assay on Schistosoma mansoni [1], in the assay on Schistosoma mansoni [2] and in the assay on Schistosoma mansoni [3] was 2 each time.
In the case of `CCOc1c(Br)cc(C2C(C(=O)OC)=CN(C)C=C2C(=O)OC)cc1OC`, the Toxicity in the assay with Schistosoma mansoni [1], with Schistosoma mansoni [2] and with Schistosoma mansoni [3] was 0 in each case.
As to `Cc1cc(NC(=O)c2cccc(C(F)(F)F)c2)n(-c2nc(-c3ccc4c(c3)OCO4)cs2)n1`, the figures for the Toxicity with Schistosoma mansoni [1], in the assay with Schistosoma mansoni [2] and in the assay with Schistosoma mansoni [3] were 3, 0 and 0, respectively.
Turning to `N=c1n(CCN2CCCCC2)c2ccccc2n1CC(=O)c1ccc(Cl)c(Cl)c1`, the Toxicity is on record as 4 with Schistosoma mansoni [1], 3 with Schistosoma mansoni [2] and 4 in the assay on Schistosoma mansoni [3].
On to `COc1ccc(-c2nonc2NC(=O)c2cccc(C)c2)cc1OC`, for which the Toxicity in the assay on Schistosoma mansoni [1], in the assay on Schistosoma mansoni [2] and in the assay on Schistosoma mansoni [3] was 0 throughout.
As for `COc1cccc(C=Cc2nc(=O)c3ccccc3o2)c1OC`, the Toxicity in the assay on Schistosoma mansoni [1], in the assay with Schistosoma mansoni [2] and with Schistosoma mansoni [3] was 0 throughout.
As for `Oc1ccc(Br)cc1CN1CCN(Cc2ccc(Cl)cc2)CC1`, the Toxicity in the assay with Schistosoma mansoni [1] turned out to be 0; in the assay on Schistosoma mansoni [2], 1; with Schistosoma mansoni [3], 0.
As to `CCOC(=O)C1=CN(C)C=C(C(=O)OCC)C1c1cc(Br)c(OCC)c(OC)c1`, the Toxicity in the assay with Schistosoma mansoni [1], in the assay with Schistosoma mansoni [2] and with Schistosoma mansoni [3] was 0 each time.
`O=C(Cc1ccccc1)NC(c1ccc(Cl)cc1)c1c(O)ccc2ccccc12` (stereo unspecified): the Toxicity in the assay on Schistosoma mansoni [1] is listed as 2; in the assay with Schistosoma mansoni [2] it was 2; in the assay with Schistosoma mansoni [3], 1.
On to `Cc1ccc(C)c(Cn2c(N3CCC(C(=O)NCc4cccs4)CC3)nc3ccccc32)c1`, for which the Toxicity in the assay with Schistosoma mansoni [1], in the assay on Schistosoma mansoni [2] and with Schistosoma mansoni [3] was 0 each time.
Regarding `Cc1ccc(-c2cc(C(=O)Nc3ccc(S(=O)(=O)N4CCCCC4)cc3)[nH]n2)c(O)c1`, the Toxicity in the assay on Schistosoma mansoni [1], in the assay on Schistosoma mansoni [2] and with Schistosoma mansoni [3] was 0 throughout.
